Results from the NIST ThermoML archive (doi:10.1016/j.fluid.2016.08.035).
Numbers after ± are expanded uncertainties.

How the values were obtained:
[1] = xn = mol fraction of the nth substance listed; conditions: 101 kPa, Liquid; for viscosity: Falling or rolling sphere viscometry; for speed of sound: Sing-around technique in a fixed-path interferometer; for mass density: Vibrating tube method
[2] = molar heat capacity at constant pressure; xn = mol fraction of the nth substance listed; conditions: 101 kPa, Liquid, DSC

CC12CCC(CC1)C(C)(C)O2 [1,3,3-trimethyl-2-oxabicyclo[2.2.2]octane] + CCCCCC
Conditions	mass density, [1] [kg/m3]	molar heat capacity at constant pressure, [2] [J/K/mol]	speed of sound, [1] [m/s]	viscosity, [1] [mPa·s]
278.15 K, x1 = 0.1043	708.22 ± 0.25	194.63 ± 7.5	1188.8 ± 1.5	0.47 ± 0.04
278.15 K, x1 = 0.2069	740.59 ± 0.25	200.97 ± 7.8	1208.4 ± 1.5	0.57 ± 0.04
278.15 K, x1 = 0.2965	767.3 ± 0.25	206.77 ± 8	1225.8 ± 1.5	0.68 ± 0.04
278.15 K, x1 = 0.4005	796.7 ± 0.24	213.53 ± 8.3	1246.1 ± 1.5	0.83 ± 0.04
278.15 K, x1 = 0.4991	823.02 ± 0.24	220.18 ± 8.5	1265.3 ± 1.5	1.03 ± 0.04
278.15 K, x1 = 0.5999	848.56 ± 0.24	227.2 ± 8.8	1284.8 ± 1.5	1.28 ± 0.04
278.15 K, x1 = 0.6995	872.46 ± 0.24	234.25 ± 9.1	1304 ± 1.5	1.66 ± 0.04
278.15 K, x1 = 0.8005	895.28 ± 0.23	241.41 ± 9.3	1322.8 ± 1.5	2.19 ± 0.04
278.15 K, x1 = 0.8985	916.39 ± 0.23	248.64 ± 9.6	1341 ± 1.5	2.93 ± 0.05
278.15 K, x1 = 1	937.25 ± 0.23	256.14 ± 9.9	1359.6 ± 1.6	4.21 ± 0.05
298.15 K, x1 = 0.1043	690.43 ± 0.25	201.78 ± 7.8	1099.9 ± 1.5	0.39 ± 0.04
298.15 K, x1 = 0.2069	722.9 ± 0.25	208.67 ± 8.1	1121.2 ± 1.5	0.46 ± 0.04
298.15 K, x1 = 0.2965	749.7 ± 0.25	214.95 ± 8.3	1139.8 ± 1.5	0.53 ± 0.04
298.15 K, x1 = 0.4005	779.19 ± 0.24	222.29 ± 8.6	1161.4 ± 1.5	0.64 ± 0.04
298.15 K, x1 = 0.4991	805.59 ± 0.24	229.41 ± 8.9	1181.5 ± 1.5	0.77 ± 0.04
298.15 K, x1 = 0.5999	831.19 ± 0.24	236.9 ± 9.2	1201.8 ± 1.5	0.93 ± 0.04
298.15 K, x1 = 0.6995	855.13 ± 0.24	244.43 ± 9.5	1221.6 ± 1.5	1.16 ± 0.04
298.15 K, x1 = 0.8005	878 ± 0.24	252.03 ± 9.8	1241.3 ± 1.5	1.48 ± 0.04
298.15 K, x1 = 0.8985	899.14 ± 0.23	259.73 ± 10	1260 ± 1.5	1.9 ± 0.04
298.15 K, x1 = 1	920.04 ± 0.23	267.69 ± 10	1278.4 ± 1.5	2.6 ± 0.05
318.15 K, x1 = 0.1043	672.12 ± 0.26	209.13 ± 8.1	1012.6 ± 1.5	0.34 ± 0.04
318.15 K, x1 = 0.2069	704.78 ± 0.25	216.45 ± 8.4	1035.9 ± 1.5	0.38 ± 0.04
318.15 K, x1 = 0.2965	731.74 ± 0.25	223.08 ± 8.6	1055.9 ± 1.5	0.43 ± 0.04
318.15 K, x1 = 0.4005	761.37 ± 0.25	230.81 ± 8.9	1078.8 ± 1.5	0.51 ± 0.04
318.15 K, x1 = 0.4991	787.91 ± 0.24	238.36 ± 9.2	1100.2 ± 1.5	0.6 ± 0.04
318.15 K, x1 = 0.5999	813.62 ± 0.24	246.29 ± 9.5	1121.5 ± 1.5	0.71 ± 0.04
318.15 K, x1 = 0.6995	837.67 ± 0.24	254.22 ± 9.8	1142.2 ± 1.5	0.86 ± 0.04
318.15 K, x1 = 0.8005	860.63 ± 0.24	262.24 ± 10	1162.8 ± 1.5	1.06 ± 0.04
318.15 K, x1 = 0.8985	881.86 ± 0.23	270.35 ± 10	1182.4 ± 1.5	1.32 ± 0.04
318.15 K, x1 = 1	902.84 ± 0.23	278.65 ± 11	1201 ± 1.5	1.73 ± 0.04
338.15 K, x1 = 0.1043	653.14 ± 0.26	216.81 ± 8.4	926.7 ± 1.5	0.3 ± 0.04
338.15 K, x1 = 0.2069	685.99 ± 0.25	224.63 ± 8.7	952.68 ± 1.5	0.34 ± 0.04
338.15 K, x1 = 0.2965	713.31 ± 0.25	231.59 ± 9	974.13 ± 1.5	0.38 ± 0.04
338.15 K, x1 = 0.4005	743.17 ± 0.25	239.8 ± 9.3	998.9 ± 1.5	0.43 ± 0.04
338.15 K, x1 = 0.4991	769.91 ± 0.24	247.71 ± 9.6	1021.5 ± 1.5	0.49 ± 0.04
338.15 K, x1 = 0.5999	795.8 ± 0.24	256.09 ± 9.9	1044.1 ± 1.5	0.57 ± 0.04
338.15 K, x1 = 0.6995	819.99 ± 0.24	264.46 ± 10	1065.7 ± 1.5	0.68 ± 0.04
338.15 K, x1 = 0.8005	843.1 ± 0.24	272.99 ± 11	1087 ± 1.5	0.82 ± 0.04
338.15 K, x1 = 0.8985	864.46 ± 0.24	281.61 ± 11	1107.2 ± 1.5	0.99 ± 0.04
338.15 K, x1 = 1	885.57 ± 0.23	290.33 ± 11	1126.7 ± 1.5	1.27 ± 0.04

CC12CCC(CC1)C(C)(C)O2 [1,3,3-trimethyl-2-oxabicyclo[2.2.2]octane] + CCCCCCCC
Conditions	mass density, [1] [kg/m3]	molar heat capacity at constant pressure, [2] [J/K/mol]	speed of sound, [1] [m/s]	viscosity, [1] [mPa·s]
278.15 K, x1 = 0.1046	738.47 ± 0.17	246.2 ± 9.5	1263.8 ± 1.3	0.77 ± 0.04
278.15 K, x1 = 0.199	759.76 ± 0.17	246.45 ± 9.5	1270.8 ± 1.3	0.87 ± 0.04
278.15 K, x1 = 0.2987	782.16 ± 0.17	246.89 ± 9.6	1279.1 ± 1.3	1 ± 0.04
278.15 K, x1 = 0.4008	805.03 ± 0.18	247.59 ± 9.6	1288.5 ± 1.4	1.17 ± 0.04
278.15 K, x1 = 0.4955	826.13 ± 0.18	248.46 ± 9.6	1297.8 ± 1.4	1.36 ± 0.04
278.15 K, x1 = 0.5939	847.98 ± 0.19	249.62 ± 9.7	1308.4 ± 1.4	1.62 ± 0.04
278.15 K, x1 = 0.6971	870.82 ± 0.19	250.95 ± 9.7	1320.1 ± 1.4	1.99 ± 0.04
278.15 K, x1 = 0.7985	893.16 ± 0.2	252.64 ± 9.8	1332.5 ± 1.5	2.49 ± 0.05
278.15 K, x1 = 0.8939	914.06 ± 0.22	254.3 ± 9.8	1344.9 ± 1.5	3.14 ± 0.05
278.15 K, x1 = 1	937.25 ± 0.23	256.14 ± 9.9	1359.6 ± 1.6	4.21 ± 0.05
298.15 K, x1 = 0.1046	722.35 ± 0.18	254.53 ± 9.9	1180.9 ± 1.3	0.6 ± 0.04
298.15 K, x1 = 0.199	743.56 ± 0.18	255.32 ± 9.9	1188.5 ± 1.3	0.66 ± 0.04
298.15 K, x1 = 0.2987	765.86 ± 0.18	256.22 ± 9.9	1197.5 ± 1.3	0.75 ± 0.04
298.15 K, x1 = 0.4008	788.62 ± 0.18	257.36 ± 10	1207.3 ± 1.4	0.86 ± 0.04
298.15 K, x1 = 0.4955	809.62 ± 0.18	258.59 ± 10	1216.9 ± 1.4	0.98 ± 0.04
298.15 K, x1 = 0.5939	831.35 ± 0.19	260.07 ± 10	1227.7 ± 1.4	1.14 ± 0.04
298.15 K, x1 = 0.6971	854.05 ± 0.2	261.75 ± 10	1239.8 ± 1.4	1.37 ± 0.04
298.15 K, x1 = 0.7985	876.24 ± 0.21	263.66 ± 10	1252.4 ± 1.5	1.65 ± 0.04
298.15 K, x1 = 0.8939	897.03 ± 0.22	265.57 ± 10	1264.9 ± 1.5	2.02 ± 0.04
298.15 K, x1 = 1	920.04 ± 0.23	267.69 ± 10	1278.4 ± 1.5	2.6 ± 0.05
318.15 K, x1 = 0.1046	705.93 ± 0.18	263.19 ± 10	1099.7 ± 1.3	0.48 ± 0.04
318.15 K, x1 = 0.199	727.08 ± 0.18	264.31 ± 10	1108.1 ± 1.3	0.53 ± 0.04
318.15 K, x1 = 0.2987	749.32 ± 0.18	265.53 ± 10	1117.9 ± 1.3	0.58 ± 0.04
318.15 K, x1 = 0.4008	772.01 ± 0.18	267 ± 10	1128.3 ± 1.3	0.66 ± 0.04
318.15 K, x1 = 0.4955	792.93 ± 0.19	268.51 ± 10	1138.3 ± 1.4	0.74 ± 0.04
318.15 K, x1 = 0.5939	814.56 ± 0.19	270.26 ± 10	1149.5 ± 1.4	0.85 ± 0.04
318.15 K, x1 = 0.6971	837.17 ± 0.2	272.14 ± 11	1162.3 ± 1.4	1 ± 0.04
318.15 K, x1 = 0.7985	859.26 ± 0.21	274.24 ± 11	1175.6 ± 1.5	1.18 ± 0.04
318.15 K, x1 = 0.8939	879.92 ± 0.22	276.39 ± 11	1188.3 ± 1.5	1.4 ± 0.04
318.15 K, x1 = 1	902.84 ± 0.23	278.65 ± 11	1201 ± 1.5	1.73 ± 0.04
338.15 K, x1 = 0.1046	689.16 ± 0.19	272.35 ± 11	1020.2 ± 1.2	0.41 ± 0.04
338.15 K, x1 = 0.199	710.27 ± 0.19	273.81 ± 11	1029.6 ± 1.3	0.44 ± 0.04
338.15 K, x1 = 0.2987	732.46 ± 0.19	275.37 ± 11	1040.3 ± 1.3	0.48 ± 0.04
338.15 K, x1 = 0.4008	755.1 ± 0.19	277.18 ± 11	1051.6 ± 1.3	0.54 ± 0.04
338.15 K, x1 = 0.4955	775.96 ± 0.19	278.93 ± 11	1062.3 ± 1.4	0.6 ± 0.04
338.15 K, x1 = 0.5939	797.55 ± 0.19	280.96 ± 11	1073.8 ± 1.4	0.68 ± 0.04
338.15 K, x1 = 0.6971	820.1 ± 0.2	283.13 ± 11	1087.4 ± 1.4	0.78 ± 0.04
338.15 K, x1 = 0.7985	842.12 ± 0.21	285.45 ± 11	1101.4 ± 1.4	0.9 ± 0.04
338.15 K, x1 = 0.8939	862.72 ± 0.22	287.81 ± 11	1114.5 ± 1.5	1.05 ± 0.04
338.15 K, x1 = 1	885.57 ± 0.23	290.33 ± 11	1126.7 ± 1.5	1.27 ± 0.04
